According to patent US8653091B2, “Pyrid-2yl fused heterocyclic compounds, and compositions and uses thereof” (Evotec AG, priority 2007, dated 2014):

How the values were obtained:
[1] = biological target: P2X3 (Homo sapiens (Human), UniProt P56373); assay: Calcium uptake assay (P2X antagonist assay), P2X3; format: cell-based; conditions: inhibition of agonist-induced calcium influx
From the text: (§1) Human P2X3 (Accession no. NM_002559), P2X2 (Accession no. NM_170682) and Rat P2X3 (Accession no. NM_031075) and P2X2 (Accession no. NM_053656) are cloned into a mammalian expression vector (e.g., pcDNA5/TO or pcDNA3 Invitrogen). The human P2X2/3 chimera clone is created as described by Neelands et al, and then cloned into an expression vector as above. Receptors are expressed in cells (e.g., HEK293 or 1321N1 (obtained from the ECACC)) via transient transfection using standard lipid mediated transfection, or by creation of stable transfectants for each receptor. For expression of the P2X2/3 heteromeric receptor, the P2X3 expression vector is stably transfected into a cell line already stably expressing P2X2. P2X2/3 heteromer function is isolated using pharmacological methods. Cell lines are maintained in DMEM+5% Glutamax, the appropriate level of selective antibiotic, and 10% heat inactivated FBS.
(§2) Functional activity of compounds at the P2X receptor is determined by measuring their ability to inhibit agonist-induced calcium influx. Compounds are tested for antagonist activity against the P2X2/3 chimera, the P2X3 homomer, or the P2X2/3 heteromer. At the start of each screening day, the agonist EC50 is determined. Compound % inhibition or IC50s are subsequently determined using a pre-determined agonist concentration (EC50-90 depending on cell line) as a stimulus. The agonists used are αβMeATP, ATP, or other ATP analogs. Compounds may be tested at concentrations ranging from 1 μM to 10 μM.
(§3) To test for antagonist activity, cells expressing the appropriate receptor are seeded onto 96 or 384 well plates 18-24 hours prior to assay. On the day of the assay, cells are loaded with calcium-sensitive fluorescent dye (e.g., Fluo-4 no wash reagent-Invitrogen cat#F36206, or the BD™ PBX Calcium Assay Kit—BD cat#640175) in Hank's Buffered Salt Solution (HESS) with up to 10 mM supplemental CaCl2. Plates are incubated at 37° C. and then equilibrated at room temperature. Antagonism of agonist-induced calcium influx is measured using a fluorescent imaging plate reader (e.g. FLIPR^TETRA, Molecular Devices, Sunnyvale, Calif.). The assay comprises two stages: a pre-treatment phase followed by a treatment phase. Compounds may be tested as follows: For the pre-treatment phase, 50 μL of 3× concentration of test compound in HBSS is added to cells containing 100 μL of dye loading media to achieve a final concentration of 1× test compound. For the treatment phase, at a set interval after pre-treatment (1-30 minutes), 50 μL of 1× test compound plus […] solution is added, resulting in a final concentration of 1× compound and 1× agonist. Fluorescence is measured at 0.1-3 second intervals—with an excitation wavelength of 494 nm and an emission wavelength of 515 nm. Responses are measured as (peak fluorescence after agonist addition) minus (baseline fluorescence prior to treatment). Percent inhibition is calculated as follows: […]
(§4) IC50 values are determined by analyzing dose response data in a 4 parameter logistic fit using GraphPad Prizm.

[2] = biological target: P2X2/3 (Homo sapiens (Human), UniProt P56373+Q9UBL9); assay: Calcium uptake assay (P2X antagonist assay), P2X2/3; format: cell-based; conditions: inhibition of agonist-induced calcium influx
From the text: as §1, §2, §3, §4

Sequence of P2X2/3 (Q9UBL9 whole entry): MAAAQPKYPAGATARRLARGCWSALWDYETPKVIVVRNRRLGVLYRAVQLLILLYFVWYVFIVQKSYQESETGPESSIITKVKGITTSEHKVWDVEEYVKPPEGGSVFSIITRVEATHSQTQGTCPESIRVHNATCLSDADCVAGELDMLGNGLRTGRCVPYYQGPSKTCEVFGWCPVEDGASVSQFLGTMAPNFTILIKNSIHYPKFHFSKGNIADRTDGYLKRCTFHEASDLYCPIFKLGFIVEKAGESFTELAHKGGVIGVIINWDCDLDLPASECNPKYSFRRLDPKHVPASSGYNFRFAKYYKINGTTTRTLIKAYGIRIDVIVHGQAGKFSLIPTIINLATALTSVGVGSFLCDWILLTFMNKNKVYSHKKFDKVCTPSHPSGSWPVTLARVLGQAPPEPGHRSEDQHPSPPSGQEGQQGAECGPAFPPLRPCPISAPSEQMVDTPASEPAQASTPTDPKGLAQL
Sequence of P2X2/3 (P56373 whole entry): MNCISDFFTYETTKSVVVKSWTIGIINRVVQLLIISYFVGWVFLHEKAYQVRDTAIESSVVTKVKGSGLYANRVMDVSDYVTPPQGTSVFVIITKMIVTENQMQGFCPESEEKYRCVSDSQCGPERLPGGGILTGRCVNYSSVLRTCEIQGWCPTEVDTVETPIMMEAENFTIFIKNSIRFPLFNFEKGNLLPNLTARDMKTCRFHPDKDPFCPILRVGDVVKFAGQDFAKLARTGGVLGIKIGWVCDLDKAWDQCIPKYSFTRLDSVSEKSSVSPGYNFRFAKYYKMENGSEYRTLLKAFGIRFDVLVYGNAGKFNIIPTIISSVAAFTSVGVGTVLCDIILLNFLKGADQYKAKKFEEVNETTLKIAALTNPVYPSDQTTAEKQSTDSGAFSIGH
Sequence of P2X3 (P56373 whole entry): as above

Cc1ccc(N2CCc3ncnc(NC(C)c4cccc(F)c4)c3C2)nc1 (stereo not drawn) [Compound 2, [1-(3-Fluoro-phenyl)-ethyl]-[6-(5-methyl-pyridin-2-yl)-5,6,7,8-tetrahydro-pyrido[4,3-d]pyrimidin-4-yl]-amine]
IC50 [1]: 56 nM | IC50 [2]: 2430 nM

Cc1ccc(N2CCc3ncnc(NC(C)c4cccc(C(F)(F)F)c4)c3C2)nc1 (stereo not drawn) [Compound 4, [6-(5-Methyl-pyridin-2-yl)-5,6,7,8-tetrahydro-pyrido[4,3-d]pyrimidin-4-yl]-[1-(3-trifluoromethyl-phenyl)-ethyl]-amine]
IC50 [1]: 301 nM

Cc1ccc(N2CCc3ncnc(NC(C)c4ccc(S(C)(=O)=O)cc4)c3C2)nc1 (stereo not drawn) [Compound 5, [1-(4-Methanesulfonyl-phenyl)-ethyl]-[6-(5-methyl-pyridin-2-yl)-5,6,7,8-tetrahydro-pyrido[4,3-d]pyrimidin-4-yl]-amine]
IC50 [1]: 128 nM | IC50 [2]: 4250 nM

Cc1ccc(N2CCc3ncnc(N[C@@H](C)c4ccc(Cl)cc4)c3C2)nc1 [Compound 6, [(S)-1-(4-Chloro-phenyl)-ethyl]-[6-(5-methyl-pyridin-2-yl)-5,6,7,8-tetrahydro-pyrido[4,3-d]pyrimidin-4-yl]-amine]
IC50 [1]: > 7200 nM

Cc1ccc(N2CCc3ncnc(N[C@H](C)c4ccc(Cl)cc4)c3C2)nc1 [Compound 7, [(R)-1-(4-Chloro-phenyl)-ethyl]-[6-(5-methyl-pyridin-2-yl)-5,6,7,8-tetrahydro-pyrido[4,3-d]pyrimidin-4-yl]-amine]
IC50 [1]: 48 nM | IC50 [2]: 1910 nM

Cc1ccc(N2CCc3ncnc(N[C@H](C)c4ccccc4)c3C2)nc1 [Compound 8, [6-(5-Methyl-pyridin-2-yl)-5,6,7,8-tetrahydro-pyrido[4,3-d]pyrimidin-4-yl]-((R)-1-phenyl-ethyl)-amine]
IC50 [1]: 73 nM | IC50 [2]: 2540 nM

Cc1ccc(N2CCc3ncnc(NC(C)c4ccncc4)c3C2)nc1 (stereo not drawn) [Compound 9, [6-(5-Methyl-pyridin-2-yl)-5,6,7,8-tetrahydro-pyrido[4,3-d]pyrimidin-4-yl]-(1-pyridin-4-yl-ethyl)-amine]
IC50 [1]: 212 nM

Cc1ccc(N2CCc3ncnc(NC(C)c4ccccn4)c3C2)nc1 (stereo not drawn) [Compound 10, [6-(5-Methyl-pyridin-2-yl)-5,6,7,8-tetrahydro-pyrido[4,3-d]pyrimidin-4-yl]-(1-pyridin-2-yl-ethyl)-amine]
IC50 [1]: 123 nM | IC50 [2]: 3970 nM

Cc1ccc(N2CCc3ncnc(NC(C)c4cccnc4)c3C2)nc1 (stereo not drawn) [Compound 11, [6-(5-Methyl-pyridin-2-yl)-5,6,7,8-tetrahydro-pyrido[4,3-d]pyrimidin-4-yl]-(1-pyridin-3-yl-ethyl)-amine]
IC50 [1]: 63 nM | IC50 [2]: 2740 nM

Cc1ccc(N2CCc3ncnc(NC(C)c4ccccc4F)c3C2)nc1 (stereo not drawn) [Compound 12, [1-(2-Fluoro-phenyl)-ethyl]-[6-(5-methyl-pyridin-2-yl)-5,6,7,8-tetrahydro-pyrido[4,3-d]pyrimidin-4-yl]-amine]
IC50 [1]: 88 nM | IC50 [2]: 4620 nM

CCc1ccc(C(C)Nc2ncnc3c2CN(c2ccc(C)cn2)CC3)cc1 (stereo not drawn) [Compound 13, [1-(4-Ethyl-phenyl)-ethyl]-[6-(5-methyl-pyridin-2-yl)-5,6,7,8-tetrahydro-pyrido[4,3-d]pyrimidin-4-yl]-amine]
IC50 [1]: 603 nM

COc1ccccc1C(C)Nc1ncnc2c1CN(c1ccc(C)cn1)CC2 (stereo not drawn) [Compound 14, [1-(2-Methoxy-phenyl)-ethyl]-[6-(5-methyl-pyridin-2-yl)-5,6,7,8-tetrahydro-pyrido[4,3-d]pyrimidin-4-yl]-amine]
IC50 [1]: 137 nM

Cc1ccc(N2CCc3ncnc(NC(C)c4ccccc4Cl)c3C2)nc1 (stereo not drawn) [Compound 15, [1-(2-Chloro-phenyl)-ethyl]-[6-(5-methyl-pyridin-2-yl)-5,6,7,8-tetrahydro-pyrido[4,3-d]pyrimidin-4-yl]-amine]
IC50 [1]: 125 nM

Cc1ccc(N2CCc3ncnc(NC(C)c4cccc(Cl)c4)c3C2)nc1 (stereo not drawn) [Compound 16, [1-(3-Chloro-phenyl)-ethyl]-[6-(5-methyl-pyridin-2-yl)-5,6,7,8-tetrahydro-pyrido[4,3-d]pyrimidin-4-yl]-amine]
IC50 [1]: 119 nM

Cc1ccc(N2CCc3ncnc(NC(C)c4cc(F)cc(F)c4)c3C2)nc1 (stereo not drawn) [Compound 17, [1-(3,5-Difluoro-phenyl)-ethyl]-[6-(5-methyl-pyridin-2-yl)-5,6,7,8-tetrahydro-pyrido[4,3-d]pyrimidin-4-yl]-amine]
IC50 [1]: 52 nM | IC50 [2]: 803 nM

Cc1ccc(N2CCc3ncnc(NC(C)c4ccc(C(F)(F)F)cc4)c3C2)nc1 (stereo not drawn) [Compound 26, [6-(5-Methyl-pyridin-2-yl)-5,6,7,8-tetrahydro-pyrido[4,3-d]pyrimidin-4-yl]-[1-(4-trifluoromethyl-phenyl)-ethyl]-amine]
IC50 [1]: 245 nM

Cc1ccc(N2CCc3ncnc(NC(C)c4ccc(Cl)cc4Cl)c3C2)nc1 (stereo not drawn) [Compound 27, [1-(2,4-Dichloro-phenyl)-ethyl]-[6-(5-methyl-pyridin-2-yl)-5,6,7,8-tetrahydro-pyrido[4,3-d]pyrimidin-4-yl]-amine]
IC50 [1]: 415 nM

Cc1ccc(N2CCc3ncnc(NC(C)c4ccc(Br)cc4)c3C2)nc1 (stereo not drawn) [Compound 28, [1-(4-Bromo-phenyl)-ethyl]-[6-(5-methyl-pyridin-2-yl)-5,6,7,8-tetrahydro-pyrido[4,3-d]pyrimidin-4-yl]-amine]
IC50 [1]: 212 nM

CCC(Nc1ncnc2c1CN(c1ccc(C)cn1)CC2)c1ccccc1 (stereo not drawn) [Compound 36, [6-(5-Methyl-pyridin-2-yl)-5,6,7,8-tetrahydro-pyrido[4,3-d]pyrimidin-4-yl]-(1-phenyl-propyl)-amine]
IC50 [1]: 397 nM

Cc1ccc(N2CCc3ncnc(N[C@H](CO)c4ccccc4)c3C2)nc1 [Compound 37, (S)-2-[6-(5-Methyl-pyridin-2-yl)-5,6,7,8-tetrahydro-pyrido[4,3-d]pyrimidin-4-ylamino]-2-phenyl-ethanol]
IC50 [1]: 161 nM

C[C@@H](Nc1ncnc2c1CN(c1ccc(Cl)cn1)CC2)c1ccc(Cl)cc1 [Compound 40, [(R)-1-(4-Chloro-phenyl)-ethyl]-[6-(5-chloro-pyridin-2-yl)-5,6,7,8-tetrahydro-pyrido[4,3-d]pyrimidin-4-yl]-amine]
IC50 [1]: 344 nM

CC[C@@H](Nc1ncnc2c1CN(c1ccc(C)cn1)CC2)c1ccccc1 [Compound 42]
IC50 [1]: 408 nM

COc1ccc([C@@H](C)Nc2ncnc3c2CN(c2ccc(C)cn2)CC3)cc1 [Compound 43, [(R)-1-(4-Methoxy-phenyl)-ethyl]-[6-(5-methyl-pyridin-2-yl)-5,6,7,8-tetrahydro-pyrido[4,3-d]pyrimidin-4-yl]-amine]
IC50 [1]: 181 nM

CC[C@H](Nc1ncnc2c1CN(c1ccc(C)cn1)CC2)c1ccccc1 [Compound 45, [6-(5-Methyl-pyridin-2-yl)-5,6,7,8-tetrahydro-pyrido[4,3-d]pyrimidin-4-yl]-((S)-1-phenyl-propyl)-amine]
IC50 [1]: > 10000 nM

C[C@H](Nc1ncnc2c1CN(c1ccc(Cl)cn1)CC2)c1ccc(C(F)(F)F)nc1 [Compound 51, (S)-6-(5-Chloropyridin-2-yl)-N-(1-(6-(trifluoromethyl)pyridin-3-yl)ethyl)-5,6,7,8-tetrahydropyrido[4,3-d]pyrimidin-4-amine]
IC50 [1]: > 10000 nM

C[C@@H](Nc1ncnc2c1CN(c1ccc(Cl)cn1)CC2)c1ccc(C(F)(F)F)nc1 [Compound 52, [6-(5-Chloro-pyridin-2-yl)-5,6,7,8-tetrahydro-pyrido[4,3-d]pyrimidin-4-yl]-[(R)-1-(6-trifluoromethyl-pyridin-3-yl)-ethyl]-amine]
IC50 [1]: 33 nM

FC(F)(F)c1ccc([C@H](Nc2ncnc3c2CN(c2ccc(Cl)cn2)CC3)C2CC2)cn1 [Compound 53, [6-(5-Chloro-pyridin-2-yl)-5,6,7,8-tetrahydro-pyrido[4,3-d]pyrimidin-4-yl]-[(R)-cyclopropyl-(6-trifluoromethyl-pyridin-3-yl)-methyl]-amine]
IC50 [1]: 3560 nM

FC(F)(F)c1ccc([C@@H](Nc2ncnc3c2CN(c2ccc(Cl)cn2)CC3)C2CC2)cn1 [Compound 54, [6-(5-Chloro-pyridin-2-yl)-5,6,7,8-tetrahydro-pyrido[4,3-d]pyrimidin-4-yl]-[(S)-cyclopropyl-(6-trifluoromethyl-pyridin-3-yl)-methyl]-amine]
IC50 [2]: > 10000 nM
